Literature values in US12637513B2, “Method of treating cancer by administering an inhibitor of erythropoietin receptor activity comprising either erythropoietin receptor or erythropoietin protein” (ImmunEdge, Inc., priority 2022, dated 2026).

How the values were obtained:
PHD2 = PHD2 (Homo sapiens, UniProt Q9GZT9); conditions: target PHD2; cited from earlier work
[1] = tested on: Hypoxia-Inducible Factor (HIF); conditions: target cell empty; cited from earlier work
PHD1-3 = conditions: target PHD1-3; cited from earlier work

Chain of PHD2 (Q9GZT9 whole entry): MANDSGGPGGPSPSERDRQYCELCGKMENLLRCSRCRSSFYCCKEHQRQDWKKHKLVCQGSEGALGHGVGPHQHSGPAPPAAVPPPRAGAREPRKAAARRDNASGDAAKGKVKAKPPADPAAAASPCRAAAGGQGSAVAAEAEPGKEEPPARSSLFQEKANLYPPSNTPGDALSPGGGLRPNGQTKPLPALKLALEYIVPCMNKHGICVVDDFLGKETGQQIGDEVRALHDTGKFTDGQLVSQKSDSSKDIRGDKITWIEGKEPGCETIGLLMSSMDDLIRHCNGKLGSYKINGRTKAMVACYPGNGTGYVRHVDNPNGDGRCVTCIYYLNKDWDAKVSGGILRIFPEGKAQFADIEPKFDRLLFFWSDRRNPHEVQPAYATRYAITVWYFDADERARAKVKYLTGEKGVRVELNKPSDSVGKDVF

Structure (SMILES) | IC50 (PHD2) | IC50 (PHD1-3) | other results
O=C(O)CNC(=O)c1c(O)cc(CCc2ccccc2)n2ncnc12 [Enarodustat] | 220 to 5700 nM |  | 
CN1CCN(C(=O)COc2ccc(C34CC5CC(CC(C5)C3)C4)cc2)CC1 [IDF-11774] |  |  | IC50 [1]: 3650 nM
O=C(O)CNC(=O)c1c(O)c2ccccc2n(Cc2ccccc2)c1=O [IOX2] | 21 nM |  | 
COc1ccc(C(NC(=O)c2cnc(-c3cccnn3)nc2O)c2ccc(OC)cc2)cc1 [MK-8617] |  | 1 to 14 nM | 
O=C(O)CNC(=O)C1=C(O)CCN(Cc2ccc(Oc3ccc(Cl)cc3)nc2)C1=O [TP0463518] |  | 5.3 to 63 nM | 
